Test results as given in ChEMBL document CHEMBL1201862, “PubChem BioAssay data set” (2004).
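The compound was tested at five concentrations on cells cultured in 96-well plates, with a 48-hour exposure period. GI50 = concentration required for 50% inhibition of growth.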 Active and inactive are the calls of the source. No stated cut-off is given here; in the data, active = GI50 up to about 1.1 µM and inactive = higher.

Columns and labels:
Assay in all cases: NCI-60 cell line screen, 48 h
[1] = test system: COLO 205
[2] = test system: MDA-MB-435
[3] = test system: IGROV-1
[4] = test system: SF-268
[5] = test system: MCF7
[6] = test system: EKVX
[7] = test system: HT-29
[8] = test system: HCC 2998
[9] = test system: NCI-H226
[10] = test system: MDA-MB-231
[11] = test system: SK-MEL-5
[12] = test system: OVCAR-3
[13] = test system: NCI-H23
[14] = test system: NCI-H522
[15] = test system: SNB-19
[16] = test system: UO-31
[17] = test system: DU-145
[18] = test system: TK-10
[19] = test system: CAKI-1
[20] = test system: T47D
[21] = test system: HOP-62
[22] = test system: Hs-578T
[23] = test system: SN12C
[24] = test system: HOP-92
[25] = test system: A549
[26] = test system: OVCAR-5
[27] = test system: U-251
[28] = test system: OVCAR-4
[29] = test system: SNB-75
[30] = test system: NCI-H460
[31] = test system: Malme-3M
[32] = test system: SF-539
[33] = test system: NCI/ADR-RES
[34] = test system: HCT-15
[35] = test system: BT-549
[36] = test system: CCRF-CEM
[37] = test system: HCT-116
[38] = test system: SF-295
[39] = test system: UACC-257
[40] = test system: LOX IMVI
[41] = test system: K562
[42] = test system: 786-0
[43] = test system: SK-OV-3
[44] = test system: ACHN
[45] = test system: PC-3
[46] = test system: UACC-62
[47] = test system: M14
[48] = test system: SW-620
[49] = test system: SR
[50] = test system: SK-MEL-28
[51] = test system: SK-MEL-2
[52] = test system: KM12
[53] = test system: MDA-N
[54] = test system: OVCAR-8
[55] = test system: MOLT-4
[56] = test system: RXF 393
[57] = test system: RPMI-8226
[58] = test system: A498

`COc1ccc2[nH]c3c(c2c1)CCc1ccccc1-3` was tested. Which GI50 [1] did it give?
The GI50 was > 100 µM (inactive).

What about the GI50 [2] of the same molecule?
Its GI50 is > 100 µM (inactive).

And the GI50 [3]?
Its GI50 is 19.8 µM (inactive).

What about the GI50 [4] of the same molecule?
The GI50 was 38.7 µM (inactive).

And the GI50 [5]?
Its GI50 is 79.3 µM (inactive).

What about the GI50 [6] of the same molecule?
Its GI50 is 17.6 µM (inactive).

What about the GI50 [7] of the same molecule?
The GI50 was > 100 µM (inactive).

What about the GI50 [8] of the same molecule?
The GI50 was 64.3 µM (inactive).

What about the GI50 [9] of the same molecule?
Its GI50 is > 100 µM (inactive).

And the GI50 [10]?
Its GI50 is 20.2 µM (inactive).

And the GI50 [11]?
Its GI50 is > 100 µM (inactive).

What about the GI50 [12] of the same molecule?
The GI50 was > 100 µM (inactive).

What about the GI50 [13] of the same molecule?
The GI50 was 41.7 µM (inactive).

And the GI50 [14]?
Its GI50 is 26.7 µM (inactive).

And the GI50 [15]?
The GI50 was 81.3 µM (inactive).

And the GI50 [16]?
The GI50 was 70.1 µM (inactive).

And the GI50 [17]?
The GI50 was > 100 µM (inactive).

What about the GI50 [18] of the same molecule?
The GI50 was > 100 µM (inactive).

And the GI50 [19]?
Its GI50 is > 100 µM (inactive).

What about the GI50 [20] of the same molecule?
The GI50 was > 100 µM (inactive).

What about the GI50 [21] of the same molecule?
Its GI50 is 35.2 µM (inactive).

What about the GI50 [22] of the same molecule?
The GI50 was 17.4 µM (inactive).

What about the GI50 [23] of the same molecule?
The GI50 was > 100 µM (inactive).

And the GI50 [24]?
The GI50 was 51.2 µM (inactive).

What about the GI50 [25] of the same molecule?
The GI50 was > 100 µM (inactive).

And the GI50 [26]?
The GI50 was > 100 µM (inactive).

And the GI50 [27]?
Its GI50 is 30.3 µM (inactive).

And the GI50 [28]?
Its GI50 is 37.6 µM (inactive).

And the GI50 [29]?
Its GI50 is 26.1 µM (inactive).

And the GI50 [30]?
The GI50 was 30.8 µM (inactive).

What about the GI50 [31] of the same molecule?
Its GI50 is 39.2 µM (inactive).

And the GI50 [32]?
Its GI50 is 16.7 µM (inactive).

And the GI50 [33]?
Its GI50 is 40.4 µM (inactive).

What about the GI50 [34] of the same molecule?
The GI50 was 70.5 µM.

And the GI50 [35]?
Its GI50 is > 100 µM (inactive).

What about the GI50 [36] of the same molecule?
The GI50 was > 100 µM (inactive).

What about the GI50 [37] of the same molecule?
Its GI50 is > 100 µM (inactive).

And the GI50 [38]?
Its GI50 is 32.8 µM (inactive).

What about the GI50 [39] of the same molecule?
The GI50 was > 100 µM (inactive).

What about the GI50 [40] of the same molecule?
The GI50 was 78.9 µM (inactive).

What about the GI50 [41] of the same molecule?
The GI50 was > 100 µM (inactive).

What about the GI50 [42] of the same molecule?
The GI50 was 50.7 µM (inactive).

What about the GI50 [43] of the same molecule?
The GI50 was 40.9 µM (inactive).

And the GI50 [44]?
The GI50 was > 100 µM (inactive).

What about the GI50 [45] of the same molecule?
The GI50 was 52.8 µM (inactive).

What about the GI50 [46] of the same molecule?
The GI50 was > 100 µM (inactive).

And the GI50 [47]?
Its GI50 is > 100 µM (inactive).

What about the GI50 [48] of the same molecule?
Its GI50 is > 100 µM (inactive).

And the GI50 [49]?
Its GI50 is 84.9 µM (inactive).

What about the GI50 [50] of the same molecule?
The GI50 was > 100 µM (inactive).

What about the GI50 [51] of the same molecule?
Its GI50 is > 100 µM (inactive).

And the GI50 [52]?
The GI50 was 32.4 µM (inactive).

What about the GI50 [53] of the same molecule?
The GI50 was > 100 µM (inactive).

What about the GI50 [54] of the same molecule?
Its GI50 is 27.7 µM (inactive).

And the GI50 [55]?
The GI50 was 80.9 µM (inactive).

What does the source list for `CCCCn1cnc2c(SC)ncnc21`?
GI50 [1]: > 100 µM (inactive); GI50 [2]: > 100 µM (inactive); GI50 [3]: > 100 µM (inactive); GI50 [4]: > 100 µM (inactive); GI50 [5]: > 100 µM (inactive); GI50 [6]: 41.7 µM (inactive); GI50 [7]: > 100 µM (inactive); GI50 [8]: > 100 µM (inactive); GI50 [10]: > 100 µM (inactive); GI50 [11]: > 100 µM (inactive); GI50 [12]: > 100 µM (inactive); GI50 [13]: > 100 µM (inactive); GI50 [14]: > 100 µM (inactive); GI50 [15]: > 100 µM (inactive); GI50 [16]: > 100 µM (inactive); GI50 [17]: > 100 µM (inactive); GI50 [18]: > 100 µM (inactive); GI50 [19]: > 100 µM (inactive); GI50 [20]: > 100 µM (inactive); GI50 [21]: > 100 µM (inactive); GI50 [22]: > 100 µM (inactive); GI50 [23]: > 100 µM (inactive); GI50 [24]: > 100 µM (inactive); GI50 [56]: > 100 µM (inactive); GI50 [25]: > 100 µM (inactive); GI50 [26]: > 100 µM (inactive); GI50 [27]: > 100 µM (inactive); GI50 [28]: > 100 µM (inactive); GI50 [29]: > 100 µM (inactive); GI50 [57]: > 100 µM (inactive); GI50 [30]: > 100 µM (inactive); GI50 [31]: > 100 µM (inactive); GI50 [32]: > 100 µM (inactive); GI50 [33]: > 100 µM (inactive); GI50 [34]: > 100 µM; GI50 [58]: > 100 µM (inactive); GI50 [35]: > 100 µM (inactive); GI50 [37]: > 100 µM (inactive); GI50 [38]: > 100 µM (inactive); GI50 [39]: > 100 µM (inactive); GI50 [40]: > 100 µM (inactive); GI50 [41]: 44.8 µM (inactive); GI50 [42]: > 100 µM (inactive); GI50 [43]: > 100 µM (inactive); GI50 [44]: > 100 µM (inactive); GI50 [45]: > 100 µM (inactive); GI50 [46]: > 100 µM (inactive); GI50 [47]: > 100 µM (inactive); GI50 [48]: > 100 µM (inactive); GI50 [49]: 3.45 µM (inactive); GI50 [50]: > 100 µM (inactive); GI50 [51]: > 100 µM (inactive); GI50 [52]: > 100 µM (inactive); GI50 [53]: > 100 µM (inactive); GI50 [54]: > 100 µM (inactive); GI50 [55]: 28.4 µM (inactive)
